Experimental data published in ChEMBL document CHEMBL2074106, “Molecular cloning and tissue distribution of rat peptide transporter PEPT2” (Biochim Biophys Acta, 1996).

Target: T1, Solute carrier family 15 member 2 (Rattus norvegicus) (UniProt Q63424)
T1 sequence (whole entry): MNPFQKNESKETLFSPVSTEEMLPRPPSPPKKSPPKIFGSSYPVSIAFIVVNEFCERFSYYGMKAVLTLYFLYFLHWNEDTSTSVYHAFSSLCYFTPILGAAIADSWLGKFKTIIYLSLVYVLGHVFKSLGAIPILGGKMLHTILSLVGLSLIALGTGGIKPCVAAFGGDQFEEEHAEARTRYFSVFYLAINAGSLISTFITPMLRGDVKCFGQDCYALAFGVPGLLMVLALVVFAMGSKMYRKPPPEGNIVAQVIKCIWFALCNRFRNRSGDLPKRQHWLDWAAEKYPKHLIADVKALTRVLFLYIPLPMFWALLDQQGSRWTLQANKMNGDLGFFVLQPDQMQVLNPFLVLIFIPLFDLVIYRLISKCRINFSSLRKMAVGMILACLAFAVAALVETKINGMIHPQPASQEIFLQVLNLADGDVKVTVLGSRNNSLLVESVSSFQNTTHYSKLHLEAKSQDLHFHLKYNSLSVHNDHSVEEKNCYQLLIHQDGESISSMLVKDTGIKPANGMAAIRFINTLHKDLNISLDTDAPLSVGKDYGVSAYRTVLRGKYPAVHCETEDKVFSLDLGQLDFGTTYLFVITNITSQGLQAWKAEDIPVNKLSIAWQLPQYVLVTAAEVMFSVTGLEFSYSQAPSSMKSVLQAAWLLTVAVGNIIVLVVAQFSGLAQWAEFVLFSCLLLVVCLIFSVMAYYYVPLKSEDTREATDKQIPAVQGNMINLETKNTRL
Experiment: TP_TRANSPORTER: uptake in Xenopus laevis oocytes
Format: functional, cell-based
Conditions: Oocyte

Activity: substrate [+]
SMILES: CC(C)C[C@H](NC(=O)[C@@H](O)[C@H](N)Cc1ccccc1)C(=O)O
